Measured values reported in ChEMBL document CHEMBL3779877, “Anticancer activity studies of cubebin isolated from Piper cubeba and its synthetic derivatives” (Bioorg Med Chem Lett, 2016).
pIC50: −log10 of the molar value. Active and inactive are the calls of the source. The calls are words filed in the database; no cut-off is given here.

Tests used:
[1] = Cytotoxicity against human HCT116 cells assessed as reduction in viable cells after 48 hrs by MTT assay; type: functional, cell-based; conditions: HCT-116, 48 h
[2] = test system: A549; assay: Cytotoxicity against human A549 cells assessed as reduction in viable cells after 48 hrs by MTT assay; type: functional, cell-based; conditions: A549, 48 h
[3] = test system: KB; assay: Cytotoxicity against human KB cells assessed as reduction in viable cells after 48 hrs by MTT assay; type: functional, cell-based
[4] = test system: HT-29; assay: Cytotoxicity against human HT-29 cells assessed as reduction in viable cells after 48 hrs by MTT assay; type: functional, cell-based; conditions: HT-29, 48 h
[5] = test system: SiHa; assay: Cytotoxicity against human SiHa cells assessed as reduction in viable cells after 48 hrs by MTT assay; type: functional, cell-based
[6] = test system: K562; assay: Cytotoxicity against human K562 cells assessed as reduction in viable cells after 48 hrs by MTT assay; type: functional, cell-based; conditions: K562, 48 h
[7] = test system: KB; assay: Induction of apoptosis in human KB cells assessed as membrane blebbing at cytotoxic IC50 after 48 hrs by AO/EB dual staining based fluorescent microscopic analysis; type: functional, cell-based
[8] = test system: A549; assay: Induction of apoptosis in human A549 cells assessed as condensed nuclei at cytotoxic IC50 after 48 hrs by Hoechst 33342 staining based fluorescent microscopic analysis; type: functional, cell-based
[9] = test system: KB; assay: Induction of apoptosis in human KB cells assessed as condensed nuclei at cytotoxic IC50 after 48 hrs by Hoechst 33342 staining based fluorescent microscopic analysis; type: functional, cell-based
[10] = test system: A549; assay: Induction of apoptosis in human A549 cells assessed as loss of normal nuclear architecture at cytotoxic IC50 after 48 hrs by inverted microscopic analysis; type: functional, cell-based
[11] = test system: A549; assay: Induction of apoptosis in human A549 cells assessed as cell shrinkage at cytotoxic IC50 after 48 hrs by AO/EB dual staining based fluorescent microscopic analysis; type: functional
[12] = test system: KB; assay: Induction of apoptosis in human KB cells assessed as detached cells at cytotoxic IC50 after 48 hrs by inverted microscopic analysis; type: functional, cell-based
[13] = test system: A549; assay: Induction of apoptosis in human A549 cells assessed as chromosomal condensation at cytotoxic IC50 after 48 hrs by AO/EB dual staining based fluorescent microscopic analysis; type: functional, cell-based
[14] = test system: A549; assay: Induction of apoptosis in human A549 cells assessed as cell shrinkage at cytotoxic IC50 after 48 hrs by inverted microscopic analysis; type: functional, cell-based
[15] = test system: A549; assay: Induction of apoptosis in human A549 cells assessed as detached cells at cytotoxic IC50 after 48 hrs by inverted microscopic analysis; type: functional, cell-based
[16] = test system: KB; assay: Induction of apoptosis in human KB cells assessed as fragmented nuclei at cytotoxic IC50 after 48 hrs by Hoechst 33342 staining based fluorescent microscopic analysis; type: functional, cell-based
[17] = test system: A549; assay: Induction of apoptosis in human A549 cells assessed as fragmented nuclei at cytotoxic IC50 after 48 hrs by Hoechst 33342 staining based fluorescent microscopic analysis; type: functional, cell-based
[18] = test system: KB; assay: Induction of apoptosis in human KB cells assessed as loss of normal nuclear architecture at cytotoxic IC50 after 48 hrs by inverted microscopic analysis; type: functional, cell-based
[19] = test system: A549; assay: Induction of apoptosis in human A549 cells assessed as membrane blebbing at cytotoxic IC50 after 48 hrs by AO/EB dual staining based fluorescent microscopic analysis; type: functional, cell-based
[20] = test system: KB; assay: Induction of apoptosis in human KB cells assessed as cell shrinkage at cytotoxic IC50 after 48 hrs by inverted microscopic analysis; type: functional, cell-based
[21] = test system: KB; assay: Induction of apoptosis in human KB cells assessed as cell shrinkage at cytotoxic IC50 after 48 hrs by AO/EB dual staining based fluorescent microscopic analysis; type: functional
[22] = test system: KB; assay: Induction of apoptosis in human KB cells assessed as chromosomal condensation at cytotoxic IC50 after 48 hrs by AO/EB dual staining based fluorescent microscopic analysis; type: functional, cell-based
[23] = Cytotoxicity against human HCT116; type: functional; conditions: HCT-116

Compound	pIC50 [1]	pIC50 [2]	pIC50 [3]	pIC50 [4]	pIC50 [5]	pIC50 [6]	also measured
O=C(NCc1ccccc1)[C@@H](Cc1ccc2c(c1)OCO2)[C@@H](CO)Cc1ccc2c(c1)OCO2	4.03	4.96	5.04	4.17	< 4.00	5.07	–
COc1ccc(CN2C(=O)[C@@H](Cc3ccc4c(c3)OCO4)[C@H](Cc3ccc4c(c3)OCO4)C2=O)cc1	< 4.00	4.34	5.04	4.14	4.48	5.06	–
O=C1OC[C@@H](Cc2ccc3c(c2)OCO3)[C@@H]1Cc1ccc2c(c1)OCO2	4.14	5.10	5.11	4.45	4.16	5.04	Activity [7]: Active; Activity [8]: Active; Activity [9]: Active; Activity [10]: Active; Activity [11]: Active; Activity [12]: Active; Activity [13]: Active; Activity [14]: Active; Activity [15]: Active; Activity [16]: Active; Activity [17]: Active; Activity [18]: Active; Activity [19]: Active; Activity [20]: Active; Activity [21]: Active; Activity [22]: Active
O=C1[C@@H](Cc2ccc3c(c2)OCO3)[C@H](Cc2ccc3c(c2)OCO3)C(=O)N1Cc1ccccc1	4.18	4.23	5.13	4.14	< 4.00	5.05	–
CC(C)CCNC(=O)[C@@H](Cc1ccc2c(c1)OCO2)[C@@H](CO)Cc1ccc2c(c1)OCO2	4.18	5.06	5.05	4.62	4.02	4.31	–
O=C1[C@@H](Cc2ccc3c(c2)OCO3)[C@H](Cc2ccc3c(c2)OCO3)C(=O)N1Cc1ccc(F)cc1	< 4.00	< 4.00	5.05	4.14	< 4.00	< 4.00	–
O=C(NCc1ccc(F)cc1)[C@@H](Cc1ccc2c(c1)OCO2)[C@@H](CO)Cc1ccc2c(c1)OCO2	4.47	5.05	4.47	4.61	4.10	5.11	–
O=C(O)CC1OC[C@@H](Cc2ccc3c(c2)OCO3)[C@@H]1Cc1ccc2c(c1)OCO2 (some centres not stated)	< 4.00	4.28	4.13	< 4.00	< 4.00	5.10	–
COc1cccc(CNC(=O)[C@@H](Cc2ccc3c(c2)OCO3)[C@@H](CO)Cc2ccc3c(c2)OCO3)c1	< 4.00	5.14	4.09	4.59	4.60	5.10	–
O=C(NCc1c[nH]c2ccccc12)[C@@H](Cc1ccc2c(c1)OCO2)[C@@H](CO)Cc1ccc2c(c1)OCO2	< 4.00	< 4.00	5.20	4.28	< 4.00	< 4.00	Activity [7]: Active; Activity [9]: Active; Activity [12]: Active; Activity [16]: Active; Activity [18]: Active; Activity [20]: Active; Activity [21]: Active; Activity [22]: Active
CC(C)CCN1C(=O)[C@@H](Cc2ccc3c(c2)OCO3)[C@H](Cc2ccc3c(c2)OCO3)C1=O	4.17	< 4.00	5.11	4.18	4.05	< 4.00	–
O=C(NCc1ccc(C(F)(F)F)cc1)[C@@H](Cc1ccc2c(c1)OCO2)[C@@H](CO)Cc1ccc2c(c1)OCO2	< 4.00	< 4.00	4.72	4.19	4.13	5.05	–
O=C(NCCc1ccccc1)[C@@H](Cc1ccc2c(c1)OCO2)[C@@H](CO)Cc1ccc2c(c1)OCO2	5.11	5.14	5.15	4.23	4.24	5.10	–
O=C1[C@@H](Cc2ccc3c(c2)OCO3)[C@H](Cc2ccc3c(c2)OCO3)C(=O)N1CCc1ccccc1	4.19	< 4.00	4.20	4.18	4.02	5.04	–
COc1ccc(CNC(=O)[C@@H](Cc2ccc3c(c2)OCO3)[C@@H](CO)Cc2ccc3c(c2)OCO3)cc1	4.34	5.18	5.04	4.29	4.04	5.08	Activity [8]: Active; Activity [10]: Active; Activity [11]: Active; Activity [13]: Active; Activity [14]: Active; Activity [15]: Active; Activity [17]: Active; Activity [19]: Active
O=C(NCCO)[C@@H](Cc1ccc2c(c1)OCO2)[C@@H](CO)Cc1ccc2c(c1)OCO2	4.34	< 4.00	5.10	4.29	4.07	4.06	–
OC[C@@H](Cc1ccc2c(c1)OCO2)[C@@H](CO)Cc1ccc2c(c1)OCO2	4.07	4.12	5.11	< 4.00	< 4.00	4.52	–
OC1OC[C@@H](Cc2ccc3c(c2)OCO3)[C@@H]1Cc1ccc2c(c1)OCO2 (some centres not stated)	4.35	5.08	5.09	4.34	< 4.00	5.06	–
COc1cc([C@@H]2c3cc4c(cc3[C@@H](O[C@@H]3O[C@@H]5CO[C@@H](C)O[C@H]5[C@H](O)[C@H]3O)[C@H]3COC(=O)[C@H]23)OCO4)cc(OC)c1O [ETOPOSIDE]	–	–	–	–	–	5.36	–
COc1cc([C@@H]2c3cc4c(cc3[C@H](O)[C@H]3COC(=O)[C@H]23)OCO4)cc(OC)c1OC [PODOFILOX]	–	–	–	–	–	–	pIC50 [23]: 8.00
